Values of other authors as cited in US20090081312A1, “PREVENTION AND TREATMENT OF ALVEOLAR OSTEITIS” (priority 2007, published 2009).

Tested on: bacterial cell growth
Settings: silver ion; B Gibbins, Ostomy Wound Management 2003

For `[Ag+]` [silver ion, silver], the “quantity sufficient to prevent bacterial cell growth” value is listed as “one”.
